Consider 16 molecules from ChEMBL document CHEMBL3879911, “Heteroaryl compounds useful as inhibitors of E1 activating enzymes” (2008).

The assay concerns the target T1, NEDD8 activating enzyme (Homo sapiens, UniProt Q8TBC4).
T1 sequence (Q8TBC4 whole entry): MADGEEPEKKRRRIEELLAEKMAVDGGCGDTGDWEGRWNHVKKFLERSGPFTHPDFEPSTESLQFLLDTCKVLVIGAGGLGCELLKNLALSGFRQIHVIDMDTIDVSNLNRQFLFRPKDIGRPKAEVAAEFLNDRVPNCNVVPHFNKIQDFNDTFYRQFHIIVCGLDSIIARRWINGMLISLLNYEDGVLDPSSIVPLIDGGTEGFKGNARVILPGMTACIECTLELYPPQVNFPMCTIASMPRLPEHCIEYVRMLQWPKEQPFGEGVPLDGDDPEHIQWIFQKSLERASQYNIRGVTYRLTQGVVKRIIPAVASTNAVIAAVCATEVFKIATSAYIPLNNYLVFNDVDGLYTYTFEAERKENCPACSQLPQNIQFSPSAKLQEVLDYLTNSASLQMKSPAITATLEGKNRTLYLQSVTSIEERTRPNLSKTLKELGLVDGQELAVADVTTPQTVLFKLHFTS
T1 sequence (Q13564 whole entry): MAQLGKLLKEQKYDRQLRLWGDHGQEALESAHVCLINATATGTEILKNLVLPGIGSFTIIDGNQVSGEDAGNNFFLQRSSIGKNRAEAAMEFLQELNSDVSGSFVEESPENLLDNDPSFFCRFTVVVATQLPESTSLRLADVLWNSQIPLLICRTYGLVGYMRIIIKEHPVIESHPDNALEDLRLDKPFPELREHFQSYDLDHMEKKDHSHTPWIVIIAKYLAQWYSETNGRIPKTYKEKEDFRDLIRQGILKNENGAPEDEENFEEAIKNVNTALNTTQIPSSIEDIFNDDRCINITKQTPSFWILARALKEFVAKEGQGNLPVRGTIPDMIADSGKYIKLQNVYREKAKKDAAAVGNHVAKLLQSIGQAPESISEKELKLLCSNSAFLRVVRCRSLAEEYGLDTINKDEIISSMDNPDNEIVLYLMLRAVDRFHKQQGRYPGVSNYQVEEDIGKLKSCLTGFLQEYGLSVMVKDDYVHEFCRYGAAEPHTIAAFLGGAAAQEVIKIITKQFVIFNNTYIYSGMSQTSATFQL
The assay can be described thus: Inhibition of recombinant human NAEalpha/N-terminal His-tagged NAEbeta expressed in baculovirus infected insect Sf9 cells using N-terminal FLAG tagged Nedd8 as substrate incubated for 105 mins in presence of N-terminal GST-tagged Ubc12 by FRET assay.
Consider `NS(=O)(=O)OC[C@@H]1C[C@@H](N2CCc3c(N[C@H]4CCc5ccccc54)ncnc32)C[C@@H]1O`, for which the IC50 was no more than 500 nM.

Take `NS(=O)(=O)OC[C@H]1CC[C@H](Oc2ncnc3[nH]c(-c4cccc5ccccc45)nc23)C1`: the IC50 lay in the range of 500 to 10000 nM.

With `NS(=O)(=O)OC[C@@H]1C[C@@H](Nc2ncnc(N[C@H]3CCc4ccccc43)n2)C[C@@H]1O`, the IC50 is no more than 500 nM.

For the molecule `NS(=O)(=O)OC[C@H]1C[C@@H](Nc2ccnc(C(=O)N3CCc4ccccc43)c2)[C@H](O)[C@@H]1O`, the IC50 was greater than 10000 nM.

With `NS(=O)(=O)OC[C@H]1C[C@@H](Nc2ccnc(C(=O)N[C@H]3CCc4ccccc43)c2)[C@H](O)[C@@H]1O`, the IC50 is greater than 10000 nM.

As for `CO[C@@H]1CC(C)(C)c2ccccc2[C@@H]1Nc1cc(O[C@@H]2C[C@@H](COS(N)(=O)=O)[C@@H](O)C2)ncn1`, the IC50 was no more than 500 nM.

On to `NS(=O)(=O)OC[C@@H]1C[C@@H](Oc2cc(OCc3ccc4ccccc4c3)ncn2)C[C@@H]1O`, for which the half-inhibitory concentration (IC50) was 500 to 10000 nM.

Turning to `NS(=O)(=O)OC[C@@H]1C[C@@H](Oc2ncnc3nc(-c4ccc(N5CCCC5)c5ccccc45)[nH]c23)C[C@@H]1O`, the IC50 is no more than 500 nM.

Turning to `CO[C@H]1CC(C)(C)c2ccccc2[C@H]1Nc1cc(O[C@@H]2C[C@@H](COS(N)(=O)=O)[C@@H](O)C2)ncn1`, the IC50 was no more than 500 nM.

Take `NS(=O)(=O)OC[C@@H]1C[C@@H](Oc2ncnc3nc(-c4c[nH]c5ccccc45)[nH]c23)C[C@@H]1O`: the IC50 is no more than 500 nM.

For `CO[C@@H]1CCc2ccccc2[C@@H]1Nc1cc(O[C@@H]2C[C@@H](COS(N)(=O)=O)[C@@H](O)C2)ncn1`, the IC50 is no more than 500 nM.

With `NS(=O)(=O)OC[C@@H]1C[C@@H](Nc2ncnc(N[C@@H]3c4ccccc4CC3(F)F)n2)C[C@@H]1O`, the IC50 is no more than 500 nM.

Regarding `CO[C@H]1CCc2ccccc2[C@H]1Nc1cc(O[C@@H]2C[C@@H](COS(N)(=O)=O)[C@@H](O)C2)ncn1`, the IC50 is no more than 500 nM.

Regarding `COc1ccc2c(c1)[C@H](Nc1cc(O[C@@H]3C[C@@H](COS(N)(=O)=O)[C@@H](O)C3)ncn1)[C@H](OC)CC2`, the IC50 lay within 500 to 10000 nM.

Take `COc1ccc2c(c1)[C@@H](Nc1cc(O[C@@H]3C[C@@H](COS(N)(=O)=O)[C@@H](O)C3)ncn1)[C@@H](OC)CC2`: the IC50 lay in the range of 500 to 10000 nM.

Turning to `NS(=O)(=O)OCC1C[C@@H](Nc2ncnc3[nH]c(C4CCCc5ccccc54)nc23)C[C@@H]1O` (single isomer, unassigned), the IC50 was no more than 500 nM.
